Numbers after ± are expanded uncertainties.
Assay: molar heat capacity at constant pressure
Conditions: 101.33 kPa

CCC(C)(C)O [2-methylbutan-2-ol]
Conditions | molar heat capacity at constant pressure [J/K/mol]
165.36 K, Crystal 2 | 122.85 ± 3.1
166.24 K, Crystal 2 | 123.44 ± 3.1
167.44 K, Crystal 2 | 123.55 ± 3.1
167.45 K, Crystal 2 | 123.69 ± 3.1
168.29 K, Crystal 2 | 126.14 ± 3.1
169.53 K, Crystal 2 | 124.34 ± 3.1
169.57 K, Crystal 2 | 124.68 ± 3.1
170.33 K, Crystal 2 | 128.89 ± 3.2
171.63 K, Crystal 2 | 125.44 ± 3.1
171.7 K, Crystal 2 | 125.8 ± 3.1
172.35 K, Crystal 2 | 131.56 ± 3.2
173.74 K, Crystal 2 | 126.82 ± 3.1
173.85 K, Crystal 2 | 127.21 ± 3.1
174.35 K, Crystal 2 | 134.03 ± 3.3
175.89 K, Crystal 2 | 128.48 ± 3.2
176.02 K, Crystal 2 | 128.7 ± 3.2
176.33 K, Crystal 2 | 136.74 ± 3.3
178.07 K, Crystal 2 | 130.33 ± 3.3
178.22 K, Crystal 2 | 130.54 ± 3.2
178.3 K, Crystal 2 | 139.33 ± 3.5
180.24 K, Crystal 2 | 141.75 ± 3.5
180.29 K, Crystal 2 | 131.97 ± 3.2
180.44 K, Crystal 2 | 132.57 ± 3.4
182.18 K, Crystal 2 | 143.44 ± 3.5
182.53 K, Crystal 2 | 133.47 ± 3.3
182.64 K, Crystal 2 | 134.58 ± 3.3
184.1 K, Crystal 2 | 145.88 ± 3.5
184.82 K, Crystal 2 | 137.28 ± 3.3
186.01 K, Crystal 2 | 147.63 ± 3.5
186.94 K, Crystal 2 | 141.12 ± 3.4
187.9 K, Crystal 2 | 148.63 ± 3.6
189 K, Crystal 2 | 143.98 ± 3.5
189.78 K, Crystal 2 | 150.78 ± 3.6
191 K, Crystal 2 | 146.05 ± 3.5
191.66 K, Crystal 2 | 151.3 ± 3.6
192.96 K, Crystal 2 | 149.37 ± 3.6
193.52 K, Crystal 2 | 152.71 ± 3.6
194.88 K, Crystal 2 | 150.75 ± 3.6
195.38 K, Crystal 2 | 154.88 ± 3.7
196.78 K, Crystal 2 | 151.94 ± 3.6
197.23 K, Crystal 2 | 154.68 ± 3.7
198.65 K, Crystal 2 | 154.12 ± 3.7
199.07 K, Crystal 2 | 156.86 ± 3.7
199.87 K, Crystal 2 | 155.64 ± 3.7
200.5 K, Crystal 2 | 154.04 ± 3.7
200.9 K, Crystal 2 | 157.7 ± 3.8
201.17 K, Crystal 2 | 157.49 ± 3.7
202.35 K, Crystal 2 | 156.44 ± 3.7
202.62 K, Crystal 2 | 157.61 ± 3.8
204.18 K, Crystal 2 | 158.51 ± 3.8
204.44 K, Crystal 2 | 159.27 ± 3.8
206 K, Crystal 2 | 158.34 ± 3.8
206.25 K, Crystal 2 | 159.14 ± 3.8
207.81 K, Crystal 2 | 159.84 ± 3.8
208.06 K, Crystal 2 | 160.6 ± 3.8
209.61 K, Crystal 2 | 159.89 ± 3.8
209.85 K, Crystal 2 | 161.82 ± 3.8
211.4 K, Crystal 2 | 158.72 ± 3.8
211.64 K, Crystal 2 | 164.89 ± 3.9
217.83 K, Crystal 1 | 141.33 ± 3.4
218.04 K, Crystal 1 | 144.15 ± 3.5
219.66 K, Crystal 1 | 143.15 ± 3.5
219.86 K, Crystal 1 | 142.88 ± 3.5
221.49 K, Crystal 1 | 143.51 ± 3.5
221.68 K, Crystal 1 | 143.74 ± 3.5
223.31 K, Crystal 1 | 144.13 ± 3.5
223.5 K, Crystal 1 | 144.13 ± 3.5
225.12 K, Crystal 1 | 144.75 ± 3.5
225.31 K, Crystal 1 | 144.76 ± 3.5
226.93 K, Crystal 1 | 145.48 ± 3.5
227.12 K, Crystal 1 | 145.55 ± 3.5
228.73 K, Crystal 1 | 146.48 ± 3.5
228.92 K, Crystal 1 | 146.48 ± 3.5
230.52 K, Crystal 1 | 147.54 ± 3.5
230.71 K, Crystal 1 | 147.5 ± 3.5
232.31 K, Crystal 1 | 148.37 ± 3.6
232.49 K, Crystal 1 | 148.43 ± 3.6
234.08 K, Crystal 1 | 149.45 ± 3.6
234.27 K, Crystal 1 | 149.58 ± 3.6
235.86 K, Crystal 1 | 150.05 ± 3.6
236.04 K, Crystal 1 | 150.15 ± 3.6
237.63 K, Crystal 1 | 151.12 ± 3.6
237.81 K, Crystal 1 | 151.14 ± 3.6
239.39 K, Crystal 1 | 152.5 ± 3.6
239.57 K, Crystal 1 | 152.39 ± 3.6
240.92 K, Crystal 1 | 153.28 ± 3.7
241.15 K, Crystal 1 | 153.19 ± 3.7
242.15 K, Crystal 1 | 153.94 ± 3.7
242.9 K, Crystal 1 | 154.53 ± 3.7
243.54 K, Crystal 1 | 154.92 ± 3.7
244.65 K, Crystal 1 | 155.65 ± 3.7
245.28 K, Crystal 1 | 156.32 ± 3.7
246.39 K, Crystal 1 | 157.17 ± 3.7
247.02 K, Crystal 1 | 157.69 ± 3.8
248.12 K, Crystal 1 | 159.18 ± 3.8
249.84 K, Crystal 1 | 160.99 ± 3.8
251.56 K, Crystal 1 | 163.84 ± 3.9
253.26 K, Crystal 1 | 168.27 ± 4

Source: the NIST ThermoML archive (doi:10.1021/je060411g)
